Results: paper PMC9231348, “Bio-Oriented Synthesis of Novel (S)-Flurbiprofen Clubbed Hydrazone Schiff’s Bases for Diabetic Management: In Vitro and In Silico Studies” (Pharmaceuticals, 2022)

Biological target: α-Glucosidase (E.C.3.2.1.20) (Saccharomyces cerevisiae, UniProt P53341)
Experiment: In vitro α-glucosidase inhibition assay
Type: biochemical
Description: α-Glucosidase (E.C.3.2.1.20) enzyme inhibition assay was developed by using 0.1 M phosphate buffer (pH 6.8) at 37 °C [39, 40, 41]. The enzyme (0.2 μ/mL) was incubated in phosphate-buffered saline with different concentrations of tested compounds at 37 °C for 15 min. […] Test compounds were substituted with DMSO-d6 (7.5% final) in the control. […] The % inhibition was calculated by using the following formula:
% Inhibition = 100 − (OD test well/OD control) × 100.

Chain of α-Glucosidase (E.C.3.2.1.20) (P53341 whole entry): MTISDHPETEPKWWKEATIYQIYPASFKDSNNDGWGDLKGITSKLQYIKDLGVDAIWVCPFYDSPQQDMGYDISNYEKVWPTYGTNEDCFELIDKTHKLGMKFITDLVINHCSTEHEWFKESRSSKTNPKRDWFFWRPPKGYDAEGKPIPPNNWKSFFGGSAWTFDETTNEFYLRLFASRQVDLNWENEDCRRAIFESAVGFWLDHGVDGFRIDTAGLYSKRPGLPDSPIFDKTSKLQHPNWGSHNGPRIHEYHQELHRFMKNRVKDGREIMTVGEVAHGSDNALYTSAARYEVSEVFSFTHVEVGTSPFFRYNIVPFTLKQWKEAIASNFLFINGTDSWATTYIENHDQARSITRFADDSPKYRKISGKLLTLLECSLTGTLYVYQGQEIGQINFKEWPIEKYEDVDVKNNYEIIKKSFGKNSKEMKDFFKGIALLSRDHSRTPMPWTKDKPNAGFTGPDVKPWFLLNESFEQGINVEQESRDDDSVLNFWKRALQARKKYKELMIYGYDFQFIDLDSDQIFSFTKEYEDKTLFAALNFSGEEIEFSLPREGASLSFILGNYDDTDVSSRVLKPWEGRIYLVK

| Structure (SMILES) | α-glucosidase inhibitory activity (in words) |
| --- | --- |
| COc1ccc(/C=N/NC(=O)C(C)c2ccc(-c3ccccc3)c(F)c2)cc1O (centres unmarked) [Compound 4f, (E)-2-(2-Fluoro-[1, 1′-biphenyl]-4-yl)-N′-(3-hydroxy-4-methoxybenzylidene)propanehydrazide] | moderate-to-low activities |
| CCC/C=N/NC(=O)C(C)c1ccc(-c2ccccc2)c(F)c1 (centres unmarked) [Compound 4k, (E)-N′-Butylidene-2-(2-fluoro-[1,1′-biphenyl]-4-yl)propanehydrazide] | moderate-to-low activities |
| CC(C(=O)N/N=C/c1cccc2ccccc12)c1ccc(-c2ccccc2)c(F)c1 (centres unmarked) [Compound 4n, (E)-2-(2-Fluoro-[1,1′-biphenyl]-4-yl)-N′-(naphthalen-1-ylmethylene)propanehydrazide] | moderate-to-low activities |

The remaining lines, values ahead:

| α-glucosidase inhibitory activity (in words) | Structure (SMILES) |
| --- | --- |
| moderate-to-low activities | C/C(=N\NC(=O)C(C)c1ccc(-c2ccccc2)c(F)c1)c1ccccc1 (centres unmarked) [Compound 5f, (E)-2-(2-Fluoro-[1,1′-biphenyl]-4-yl)-N′-(1-phenylethylidene)propanehydrazide] |
| moderate-to-low activities | CC/C(=N\NC(=O)C(C)c1ccc(-c2ccccc2)c(F)c1)c1ccccc1 (centres unmarked) [Compound 5g, (E)-2-(2-Fluoro-[1,1′-biphenyl]-4-yl)-N′-(1-phenylpropylidene)propanehydrazide] |

Test system: not given
Experiment: not given

| Structure (SMILES) | melting point |
| --- | --- |
| COc1cc(/C=N/NC(=O)C(C)c2ccc(-c3ccccc3)c(F)c2)cc(OC)c1OC (centres unmarked) [Compound 4a, (E)-2-(2-Fluoro-[1,1′-biphenyl]-4-yl)-N′-(3,4,5-trimethoxybenzylidene)propanehydrazide] | 139 to 140 °C |
| CC(C(=O)N/N=C/c1cccc([N+](=O)[O-])c1)c1ccc(-c2ccccc2)c(F)c1 (centres unmarked) [Compound 4b, (E)-2-(2-Fluoro-[1,1′-biphenyl]-4-yl)-N′-(3-nitrobenzylidene)propanehydrazide] | 145 to 147 °C |
| CC(C(=O)N/N=C/c1ccc(O)cc1O)c1ccc(-c2ccccc2)c(F)c1 (centres unmarked) [Compound 4c, (E)-N′-(2,4-Dihydroxybenzylidene)-2-(2-fluoro-[1,1′-biphenyl]-4-yl)propanehydrazide] | 133 to 135 °C |
| COc1cccc(/C=N/NC(=O)C(C)c2ccc(-c3ccccc3)c(F)c2)c1O (centres unmarked) [Compound 4d, (E)-2-(2-Fluoro-[1,1′-biphenyl]-4-yl)-N′-(2-hydroxy-3-methoxybenzylidene)propanehydrazide] | 154 to 155 °C |
| CCN(CC)c1ccc(/C=N/NC(=O)C(C)c2ccc(-c3ccccc3)c(F)c2)cc1 (centres unmarked) [Compound 4e, (E)-N′-(4-(Diethylamino)benzylidene)-2-(2-fluoro-[1,1′-biphenyl]-4-yl)propanehydrazide] | 144 to 145 °C |
| COc1ccc(/C=N/NC(=O)C(C)c2ccc(-c3ccccc3)c(F)c2)cc1O (centres unmarked) [Compound 4f, (E)-2-(2-Fluoro-[1, 1′-biphenyl]-4-yl)-N′-(3-hydroxy-4-methoxybenzylidene)propanehydrazide] | 126 to 127 °C |
| CC(C(=O)N/N=C/c1ccc(Br)cc1F)c1ccc(-c2ccccc2)c(F)c1 (centres unmarked) [Compound 4g, (E)-N′-(4-Bromo-2-fluorobenzylidene)-2-(2-fluoro-[1,1′-biphenyl]-4-yl)propanehydrazide] | 166 to 168 °C |
| CC(C(=O)N/N=C/c1cccc(Br)c1)c1ccc(-c2ccccc2)c(F)c1 (centres unmarked) [Compound 4h, (E)-N′-(3-Bromobenzylidene)-2-(2-fluoro-[1,1′-biphenyl]-4-yl)propanehydrazide] | 147 to 148 °C |
| CC(C(=O)NN=Cc1cc(Br)c(O)c(Br)c1)c1ccc(-c2ccccc2)c(F)c1 (centres unmarked) [Compound 4i, (E)-N′-(3,5-Dibromo-4-hydroxybenzylidene)-2-(2-fluoro-[1,1′-biphenyl]-4-yl)propane hydrazide] | 161 to 162 °C |
| CCOc1cc(/C=N/NC(=O)C(C)c2ccc(-c3ccccc3)c(F)c2)ccc1O (centres unmarked) [Compound 4j, (E)-N′-(3-Ethoxy-4-hydroxybenzylidene)-2-(2-fluoro-[1,1′-biphenyl]-4-yl)propanehydrazide] | 173 to 174 °C |
| CCC/C=N/NC(=O)C(C)c1ccc(-c2ccccc2)c(F)c1 (centres unmarked) [Compound 4k, (E)-N′-Butylidene-2-(2-fluoro-[1,1′-biphenyl]-4-yl)propanehydrazide] | 168 to 169 °C |
| CCCCC/C=N/NC(=O)C(C)c1ccc(-c2ccccc2)c(F)c1 (centres unmarked) [Compound 4l, (E)-2-(2-Fluoro-[1, 1′-biphenyl]-4-yl)-N′-hexylidenepropanehydrazide] | 129 to 130 °C |
| COc1ccccc1/C=N/NC(=O)C(C)c1ccc(-c2ccccc2)c(F)c1 (centres unmarked) [Compound 4m, (E)-2-(2-Fluoro-[1,1′-biphenyl]-4-yl)-N′-(2-methoxybenzylidene)propanehydrazide] | 131 to 132 °C |
| CC(C(=O)N/N=C/c1cccc2ccccc12)c1ccc(-c2ccccc2)c(F)c1 (centres unmarked) [Compound 4n, (E)-2-(2-Fluoro-[1,1′-biphenyl]-4-yl)-N′-(naphthalen-1-ylmethylene)propanehydrazide] | 168 to 170 °C |
| CC(C(=O)N/N=C/c1ccc(C(=O)O)cc1)c1ccc(-c2ccccc2)c(F)c1 (centres unmarked) [Compound 4p, (E)-4-((2-(2-(2-Fluoro-[1,1′-biphenyl]-4-yl)propanoyl)hydrazono)methyl)benzoic acid] | 176 to 177 °C |

Continued, values first:

| melting point | Structure (SMILES) |
| --- | --- |
| 152 °C | C/C(=N\NC(=O)C(C)c1ccc(-c2ccccc2)c(F)c1)c1ccc(O)cc1 (centres unmarked) [Compound 5a, (E)-2-(2-Fluoro-[1,1′-biphenyl]-4-yl)-N′-(1-(4-hydroxyphenyl)ethylidene)propanehydrazide] |
| 175 °C | C/C(=N\NC(=O)C(C)c1ccc(-c2ccccc2)c(F)c1)c1ccc([N+](=O)[O-])cc1 (centres unmarked) [Compound 5b, (E)-2-(2-Fluoro-[1,1′-biphenyl]-4-yl)-N′-(1-(4-nitrophenyl)ethylidene)propanehydrazide] |
| 187 °C | COc1ccc2c(c1)CCC/C2=N\NC(=O)C(C)c1ccc(-c2ccccc2)c(F)c1 (centres unmarked) [Compound 5c, (E)-2-(2-Fluoro-[1,1′-biphenyl]-4-yl)-N′-(6-methoxy-3,4-dihydronaphthalen-1(2H) -ylidene)propanehydrazide] |
| 181 °C | C/C(=N\NC(=O)C(C)c1ccc(-c2ccccc2)c(F)c1)c1ccccc1 (centres unmarked) [Compound 5f, (E)-2-(2-Fluoro-[1,1′-biphenyl]-4-yl)-N′-(1-phenylethylidene)propanehydrazide] |
| 179 °C | CC/C(=N\NC(=O)C(C)c1ccc(-c2ccccc2)c(F)c1)c1ccccc1 (centres unmarked) [Compound 5g, (E)-2-(2-Fluoro-[1,1′-biphenyl]-4-yl)-N′-(1-phenylpropylidene)propanehydrazide] |
| 177 °C | CC(C)/C(=N\NC(=O)C(C)c1ccc(-c2ccccc2)c(F)c1)c1ccccc1 (centres unmarked) [Compound 5h, (E)-2-(2-Fluoro-[1,1′-biphenyl]-4-yl)-N′-(2-methyl-1-phenylpropylidene)propanehydrazide] |
| 165 °C | CCCC/C(=N\NC(=O)C(C)c1ccc(-c2ccccc2)c(F)c1)c1ccccc1 (centres unmarked) [Compound 5i, (E)-2-(2-Fluoro-[1,1′-biphenyl]-4-yl)-N′-(1-phenylpentylidene)propanehydrazide] |
| 160 °C | C/C(=N\NC(=O)C(C)c1ccc(-c2ccccc2)c(F)c1)C1CC1 (centres unmarked) [Compound 5j, (E)-N′-(1-Cyclopropylethylidene)-2-(2-fluoro-[1,1′-biphenyl]-4-yl)propanehydrazide] |
| 183 °C | CCC/C(=N\NC(=O)C(C)c1ccc(-c2ccccc2)c(F)c1)c1ccccc1 (centres unmarked) [Compound 5k, (E)-2-(2-Fluoro-[1,1′-biphenyl]-4-yl)-N′-(1-phenylbutylidene)propanehydrazide] |
| 177 °C | CC(C(=O)NN=C1CCCCC1)c1ccc(-c2ccccc2)c(F)c1 (centres unmarked) [Compound 5l, N′-Cyclohexylidene-2-(2-fluoro-[1,1′-biphenyl]-4-yl)propanehydrazide] |
| 198 °C | COc1ccccc1/C(C)=N/NC(=O)C(C)c1ccc(-c2ccccc2)c(F)c1 (centres unmarked) [Compound 5m, (E)-2-(2-Fluoro-[1,1′-biphenyl]-4-yl)-N′-(1-(2-methoxyphenyl)ethylidene)propanehydrazide] |
| 192 °C | COc1ccc(/C(C)=N/NC(=O)C(C)c2ccc(-c3ccccc3)c(F)c2)cc1 (centres unmarked) [Compound 5n, (E)-2-(2-Fluoro-[1,1′-biphenyl]-4-yl)-N′-(1-(4-methoxyphenyl)ethylidene)propanehydrazide] |
